Test results as given in patent US20260335468A1, “MOLECULAR RADIOAFTERGLOW PROBES FOR CANCER RADIODYNAMIC THERANOSTICS” (NANYANG TECHNOLOGICAL UNIVERSITY, priority 2023, published 2026).

Assays:
[1] = Radio afterglow spectra, intensity and half-life of luminophores in PBS after X-ray; assay type: physicochemical; conditions: for radio afterglow brightness / intensity: X-ray irradiation; for radio afterglow intensity increase versus iodine-free counterpart: 100 μM, PBS pH 7.4, 50% DMSO, X-ray 5 mGy
Procedure: The optical properties of DPAs and IDPAs were investigated in an aqueous solution (FIGS. 2 and 3). […] Their half-lives ranged from 9.2 to 196.8 min (FIG. 4e).
DPAs or IDPAs (100 μM) in 0.01 M PBS (pH 7.4, 50% DMSO) were irradiated by X-rays at 250 μGy s^−1 for 20 s (total, 5 mGy) under the specific setup parameter of 10 kV and 75 μA. Then, the radio afterglow signal was collected with an IVIS imaging system under the bioluminescence mode with an open filter and an acquisition time of 60 s. Finally, the radio afterglow intensities were quantified by a region-of-interest analysis using Living Image 4.3 software. In addition, the radio afterglow spectra of the candidates were acquired under the same test conditions with specific emission filters, and time courses of the signal were recorded as a function of time.

[2] = ^1O2 generation upon X-ray irradiation (ESR, TEMP trap); assay type: physicochemical; conditions: for ^1O2 generation / radiodynamic activity: X-ray irradiation, ESR
Procedure: To study ^1O2 generation, a mixture of DPAS or IDPAS (100 M) and TEMP (10 mM) in PBS (0.01 M, pH 7.4, 50% DMSO) was irradiated by X-rays at 2 Gy (100 mGy s^−1 for 20 s) or 5 mGy (250 μGy s^−1 for 20 s). The ESR signals of the mixture were recorded with a Bruker A300 instrument. The ESR signal of the free radical 2,2,6,6-tetramethyl-1-piperidinyloxyl (g=2.0060) was generated by the reaction of ^1O2 with TEMP. The ^1O2 quencher NaN3 (1 mM) was added to validate the afterglow mechanism of IDPASu. Additionally, other commercially available radio sensitizers (such as acridine orange, hematoporphyrin and verteporfin) were measured and compared. The procedure of block depths was similar to that of the tissue penetration depth study and the ^1O2 generation for different depth tissues was measured. The ESR signal changes of MRAP in the absence or presence of CatB were measured in a similar way. The ESR signals of 2,2,6,6-tetramethyl-1-piperidinyloxyl from the reaction of ^1O2 with TEMP were plotted as a function of the concentration of ^1O2, which was generated by the addition of NaOCl to H2O2. This generated the standard curve between the ESR intensity and ^1O2 concentration.

| Structure (SMILES) | radio afterglow brightness / intensity [1] | ^1O2 generation versus that of IDPAs ([2]; X-ray 5 mGy) | ^1O2 generation / radiodynamic activity [2] | radio afterglow intensity increase versus iodine-free counterpart [1] |
| --- | --- | --- | --- | --- |
| COC(=C1C2CC3CC(C2)CC1C3)c1c(/C=C/C2=CC(=C(C#N)C#N)c3ccccc3S2)cc(I)c(O)c1I [DIDPAS] | extremely low | ~ 1.2 fold | slightly increase |  |
| COC(=C1C2CC3CC(C2)CC1C3)c1cc(O)c(I)cc1/C=C/C1=CC(=C(C#N)C#N)c2ccccc2O1 [IDPAO] |  |  |  | ~ 1.62 fold |
| COC(=C1C2CC3CC(C2)CC1C3)c1c(/C=C/C2=CC(=C(C#N)C#N)c3ccccc3O2)cc(I)c(O)c1I [DIDPAO] | extremely low |  | slightly increase |  |
| COC(=C1C2CC3CC(C2)CC1C3)c1cc(O)ccc1/C=C/C1=CC(=C(C#N)C#N)c2ccccc2S1 [DPASu, DBTP-phenoxy-adamantylidene] |  |  | generation of ^1O2 |  |
| COC(=C1C2CC3CC(C2)CC1C3)c1cc(O)c(I)cc1/C=C/C1=CC(=C(C#N)C#N)c2ccccc2[Se]1 [IDPASe] |  |  |  | 6.65 fold |
